Legend:
[1] = target: T1, alpha2B adrenergic receptors (Homo sapiens, UniProt P18089); assay: Receptor Selection and Amplification Technology (RSAT) assay, alpha2B; assay type: cell-based; conditions: for EC50: NA = not active at concentrations less than 10 micromolar, read-out: Alpha 2B EC50; for Alpha 2B intrinsic activity: fraction of maximal effect of standard full agonist brimonidine (UK14304)
T1 construct: expressed in transfected cells; host or cells: NIH-3T3
T1 sequence (P18089 1-450): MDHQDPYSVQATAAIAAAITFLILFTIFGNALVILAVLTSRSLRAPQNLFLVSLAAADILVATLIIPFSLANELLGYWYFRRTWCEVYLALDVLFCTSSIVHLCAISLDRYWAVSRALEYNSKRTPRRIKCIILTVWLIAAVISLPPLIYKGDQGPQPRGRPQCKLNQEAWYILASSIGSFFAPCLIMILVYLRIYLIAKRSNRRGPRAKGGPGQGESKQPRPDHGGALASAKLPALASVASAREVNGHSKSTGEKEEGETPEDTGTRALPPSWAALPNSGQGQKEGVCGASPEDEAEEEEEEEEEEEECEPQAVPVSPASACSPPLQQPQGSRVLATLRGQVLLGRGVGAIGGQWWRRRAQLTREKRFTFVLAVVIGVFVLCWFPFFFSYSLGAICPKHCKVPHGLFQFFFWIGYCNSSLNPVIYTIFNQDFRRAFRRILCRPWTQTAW
From the text: (§1) The imidazole-2-thione compounds of the invention are agonists of alpha2 adrenergic receptors, particularly they tend to be specific or selective agonists of alpha2B and/or to a lesser extent alpha2C adrenergic receptors, in preference over alpha2A adrenergic receptors. […] Al., 1995, Pharmacol. Toxicol. 76, pp. 308-311 (incorporated herein by reference) and is also described below. Another reference pertinent to this assay is Conklin et al. (1993) Nature 363:274-6, also incorporated herein by reference.
(§2) Receptor Selection and Amplification Technology (RSAT) Assay
(§3) The RSAT assay measures a receptor-mediated loss of contact inhibition that results in selective proliferation of receptor-containing cells in a mixed population of confluent cells. The increase in cell number is assessed with an appropriate transfected marker gene such as β-galactosidase, the activity of which can be easily measured in a 96-well format. Receptors that activate the G protein, Gq, elicit this response. Alpha2 receptors, which normally couple to Gi, activate the RSAT response when coexpressed with a hybrid Gq protein that has a Gi receptor recognition domain, called Gq/i5.
(§4) NIH-3T3 cells are plated at a density of 2×10^6 cells in 15 cm dishes and maintained in Dulbecco's modified Eagle's medium supplemented with 10% calf serum. One day later, cells are cotransfected by calcium phosphate precipitation with mammalian expression plasmids encoding p-SV-β-galactosidase (5-10 μg), receptor (1-2 μg) and G protein (1-2 μg). 40 μg salmon sperm DNA may also be included in the transfection mixture. Fresh media is added on the following day and 1-2 days later, cells are harvested and frozen in 50 assay aliquots. Cells are thawed and 100 μl added to 100 μl aliquots of various concentrations of drugs in triplicate in 96-well dishes. Incubations continue 72-96 hr at 37 EC. After washing with phosphate-buffered saline, β-galactosidase enzyme activity is determined by adding 200 μl of the chromogenic substrate (consisting of 3.5 mM o-nitrophenyl-β-D-galactopyranoside and 0.5% nonidet P-40 in phosphate buffered saline), incubating overnight at 30 EC and measuring optical density at 420 nm. The absorbance is a measure of enzyme activity, which depends on cell number and reflects a receptor-mediated cell proliferation. The EC50 and maximal effect of each drug at each alpha2 receptor is determined. The efficacy or intrinsic activity is calculated as a ratio of the maximal effect of the drug to the maximal effect of a standard full agonist for each receptor subtype. Brimonidine, also called UK14304, the chemical structure of which is shown below, is used as the standard agonist for the alpha2A, alpha2B and alpha2C receptors.
(§5) The results of the RSAT assay with several exemplary compounds of the invention are disclosed in Table 1 above together with the chemical formulas of these examplary compounds. […] NA stands for “not active” at concentrations less than 10 micromolar. As is known EC50 is the concentration at which half of a given compound's maximal activity is observed.

[2] = target: T2, alpha2C adrenergic receptors (Homo sapiens, UniProt P18825); assay: Receptor Selection and Amplification Technology (RSAT) assay, alpha2C; assay type: cell-based; conditions: for EC50: NA = not active at concentrations less than 10 micromolar, read-out: Alpha 2C EC50; for Alpha 2C intrinsic activity: fraction of maximal effect of standard full agonist brimonidine (UK14304)
T2 construct: expressed in transfected cells; host or cells: NIH-3T3
T2 sequence (P18825 1-462): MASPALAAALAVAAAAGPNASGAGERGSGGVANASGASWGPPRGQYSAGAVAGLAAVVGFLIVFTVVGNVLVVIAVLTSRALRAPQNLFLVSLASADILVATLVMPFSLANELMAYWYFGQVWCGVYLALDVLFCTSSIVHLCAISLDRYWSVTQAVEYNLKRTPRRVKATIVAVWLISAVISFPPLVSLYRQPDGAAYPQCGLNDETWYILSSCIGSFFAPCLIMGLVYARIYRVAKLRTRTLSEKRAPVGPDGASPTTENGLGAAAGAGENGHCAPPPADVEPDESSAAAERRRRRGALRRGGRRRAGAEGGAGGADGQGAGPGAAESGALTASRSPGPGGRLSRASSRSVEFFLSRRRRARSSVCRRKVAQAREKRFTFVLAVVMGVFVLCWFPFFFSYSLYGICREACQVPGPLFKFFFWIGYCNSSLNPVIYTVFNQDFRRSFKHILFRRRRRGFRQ
From the text: as §1, §2, §3, §4, §5

Row | SMILES | EC50 [1] | Alpha 2B intrinsic activity [1] | EC50 [2] | Alpha 2C intrinsic activity [2]
1 | S=c1[nH]cc(C2Cc3cccc(Br)c3C2)[nH]1 (centres unmarked) | 5 nM | 1.07 | 106 nM | 0.87
2 | S=c1[nH]cc(CC2CCC=C2Cl)[nH]1 (centres unmarked) | 28 nM | 0.9 | 116 nM | 0.55
3 | S=c1[nH]cc(CC2C=CCCC2)[nH]1 (centres unmarked) | 665 nM | 1.12 | > 2000 nM | 0.70
4 | S=c1[nH]cc(CC2CCC=C2c2cccs2)[nH]1 (centres unmarked) | 234 nM | 0.53 | 611 nM | 0.42
5 | Cc1ccc(C)c2c1CC(c1c[nH]c(=S)[nH]1)C2 | 7 nM | 1.27 | 92 nM | 0.86
6 | CC1=C(c2ccc(F)cc2)C(Cc2c[nH]c(=S)[nH]2)CC1 (centres unmarked) | 51 nM | 0.78 | 22 nM | 0.95
7 | CC1=C(c2cc(F)cc(F)c2)C(Cc2c[nH]c(=S)[nH]2)CC1 (centres unmarked) | 115 nM | 0.89 | 47 nM | 1.11
8 | Fc1ccc(C2=CCCC2Cc2c[nH]c(=S)[nH]2)cc1 (centres unmarked) | 459 nM | 0.68 | 152 nM | 0.77
9 | Cc1ccc2c(c1)C(Cc1c[nH]c(=S)[nH]1)CC2 (centres unmarked) | 19 nM | 0.92 | 349 nM | 0.69
10 | COc1ccc(C2=CCCC2Cc2c[nH]c(=S)[nH]2)cc1 (centres unmarked) | > 3000 nM | 0.56 | 568 nM | 0.47
11 | Fc1cc(F)cc(C2=CCC[C@@H]2Cc2c[nH]c(=S)[nH]2)c1 | 1600 nM | 0.59 | 569 nM | 0.68
12 | Fc1ccc(C2=CCCC2Cc2c[nH]c(=S)[nH]2)cc1F (centres unmarked) | 225 nM | 0.44 | 205 nM | 0.68
13 | S=c1[nH]cc(C2CCc3ccccc3C2)[nH]1 (centres unmarked) | 34 nM | 1.03 | 423 nM | 0.52
14 | CC1Cc2ccccc2C1Cc1c[nH]c(=S)[nH]1 (centres unmarked) | 578 nM | 1.1 | > 2000 nM | 0.57
15 | S=c1[nH]cc(CC2CCCc3ccccc32)[nH]1 (centres unmarked) | 24 nM | 0.93 | 137 nM | 0.42
16 | CC1=CCCCC1Cc1c[nH]c(=S)[nH]1 (centres unmarked) | 85 nM | 1.07 | 677 nM | 1.13
17 | Fc1ccc2c(c1)CCC2Cc1c[nH]c(=S)[nH]1 (centres unmarked) | 41 nM | 0.97 | 1110 nM | 0.52
18 | S=c1[nH]cc(CC2CCC3=C2CCCC3)[nH]1 (centres unmarked) | 30 nM | 1.06 | 602 nM | 0.55
19 | S=c1[nH]cc(CC2CCc3ccccc32)[nH]1 (centres unmarked) [drawing 16] | 10 nM | 0.91 | 182 nM | 0.57

Row | SMILES | EC50 [1] | Alpha 2B intrinsic activity [1] | EC50 [2] | Alpha 2C intrinsic activity [2]
20 | CCC1=CC(Cc2c[nH]c(=S)[nH]2)CC1 (centres unmarked) | 750 nM | 0.49 | > 2000 nM | 0.32
21 | Fc1ccc(C2=C(C3CC3)CCC2Cc2c[nH]c(=S)[nH]2)cc1 (centres unmarked) | 32 nM | 0.9 | 9 nM | 0.45
22 | CC1=C(Br)C(Cc2c[nH]c(=S)[nH]2)CC1 (centres unmarked) | 27 nM | 0.95 | 139 nM | 0.48
23 | Cc1cccc2c1C(=O)C(Cc1c[nH]c(=S)[nH]1)CC2 (centres unmarked) | 29 nM | 0.96 | 66 nM | 0.47
24 | O=[N+]([O-])c1cccc(C2=CCCC2Cc2c[nH]c(=S)[nH]2)c1 (centres unmarked) | > 10000 nM |  | 2510 nM | 
25 | Cc1cccc2c1CCC2Cc1c[nH]c(=S)[nH]1 (centres unmarked) | 58 nM | 0.93 | 939 nM | 0.34
26 | CC1CC(Cc2c[nH]c(=S)[nH]2)C(=O)c2ccccc21 (centres unmarked) | 523 nM | 0.96 | > 2000 nM | 0.61
27 | S=c1[nH]cc(C2Cc3cccc(I)c3C2)[nH]1 (centres unmarked) | 7 nM | 0.96 | 101 nM | 0.49
28 | S=c1[nH]cc(C2Cc3ccc(Cl)c(Cl)c3C2)[nH]1 (centres unmarked) | 7 nM | 1 | 190 nM | 0.53
29 | CCC1=C(c2ccc(F)cc2)C(Cc2c[nH]c(=S)[nH]2)CC1 (centres unmarked) | 103 nM | 0.97 | 40 nM | 0.52
30 | Fc1cccc(C2=CCC[C@H]2Cc2c[nH]c(=S)[nH]2)c1 | 191 nM | 0.53 | 916 nM | 0.37
31 | Fc1cc(F)cc(C2=CCC[C@H]2Cc2c[nH]c(=S)[nH]2)c1 | 472 nM | 0.83 | 790 nM | 0.58
32 | S=c1[nH]cc(CC2CCC3=C2CCC3)[nH]1 (centres unmarked) [drawing 15] | 5 nM | 0.87 | 110 nM | 0.43
33 | S=c1[nH]cc(CC2CCc3cc(Br)ccc32)[nH]1 (centres unmarked) | 158 nM | 0.85 |  | 0.62
34 | O=C1c2c(F)cccc2CCC1Cc1c[nH]c(=S)[nH]1 (centres unmarked) | 172 nM | 0.76 | 107 nM | 0.35
35 | CC1=C(c2ccc(C#N)cc2)C(Cc2c[nH]c(=S)[nH]2)CC1 (centres unmarked) | 22 nM | 0.93 | 41 nM | 0.85
36 | CCC1=CCCCC1Cc1c[nH]c(=S)[nH]1 (centres unmarked) | 161 nM | 1.0 | 331 nM | 1.0
37 | S=c1[nH]cc(CC2CC=CC2)[nH]1 [drawing 24] | 24 nM | 0.85 | 180 nM | 0.51
38 | S=c1[nH]cc(CC2CCc3c(Br)cccc32)[nH]1 (centres unmarked) | 87 nM | 0.73 | 168 nM | 0.59

Reference: patent publication US7323485B2, “4-(substituted cycloalkylmethyl) imidazole-2-thiones, 4-(substituted cycloalkenylmethyl) imidazole-2-thiones, 4-(substituted cycloalkylmethyl) imidazol-2-ones and 4-(substituted cycloalkenylmethyl) imidazol-2-ones and related compounds” (Allergan, Inc., priority 2002, dated 2008)
